SMILES strings stand for the structures. ≈ marks a conversion by molar mass, not a printed value. Numbered stars: 1 amine (or outer) side, 2 acyl side, 3 side chain; on linkers, the order of the positions; unused ones are H or OH. Square brackets hold non-standard residues; d marks the D form. Peptide text beside a SMILES is read from it. * marks the point of attachment. ξ: configuration not given here. X1 = N=C1NCC(C(O)C(N[*:1])C(=O)[*:2])N1C1OC(CO)C(O)C(O)C1O; ξEnduracididine(βξ-OH,4'ξ) = N=C1NCC(C(O)C(N)C(=O)O)N1; ξPhe(4-Cl,βξ-Me) = CC(c1ccc(Cl)cc1)C(N)C(=O)O; X2 = OCC1OC(OC2C(CO)OC(*)C(O)C2O)C(O)C(O)C1O

Holding throughout (experiment): In vitro antibacterial evaluation: minimum inhibitory concentration (MIC), broth dilution method
What all share (format): cell-based

For one assay, the system named is Escherichia coli. The protocol:
(§1) The minimum inhibitory concentration (MIC), the lowest concentration of the antibiotic which inhibits growth of the test organism, is determined by the broth dilution method using Muller-Hinton II […] (Baltimore Biological Laboratories) following the recommendations of the National Committee for Clinical Laboratory Standards [Methods for dilution antimicrobial susceptibility tests for bacteria that grow aerobically, approved standard M7-A2, National Committee for Clinical Laboratory Standards, Villanova, Pa].
(§2) An inoculum level of 5×10^5 CFU/mL, and a range of antibiotic concentrations (64-0.06 μg/mL) is used. […] The test organisms include a spectrum of Gram-positive bacteria comprised of Staphylococcus sp., Streptococcus sp. and Enterococcus sp. These organisms include recent clinical isolates that are resistant to methicillin, penicillin and/or vancomycin.

For a further assay, the system named is Staphylococcus sp. Conditions: for MIC Coagulase Negative Staphylococcus (GC 4551): strain GC 4551; for MIC Coagulase Negative Staphylococcus (GC 6257): strain GC 6257. Here is the method: as §1, §2
For the next assay, the system named is Streptococcus sp. The conditions noted are these: 18 hours at 35° C. Here is the method:
as §1, §2

The next assay has as its system Enterococcus sp. Conditions: 18 hours at 35° C. The protocol: as §1, §2
Where [1] appears, read: 5×10^5 CFU/mL, 18 hours at 35° C.
Where [2] appears, read: broth dilution, 18 hours at 35° C.

As to `CC(c1ccccc1)C1NC(=O)CNC(=O)C(CO)NC(=O)C(C(O)C2CNC(=N)N2C2OC(CO)C(O)C(O)C2O)NC(=O)C(C(O)C2CNC(=N)N2)NC(=O)C(Cc2ccc(OC3OC(CO)C(OC4OC(CO)C(O)C5OC(c6ccccc6)OC45)C(O)C3O)cc2)NC1=O` (single isomer, unassigned) [Example 104a, Cyclo[glycyl-β-methylphenylalanyl-O-[4-O-(2,3-O-benzylidenehexopyranosyl)hexopyranosyl]-tyrosyl-3-(2-iminoimidazolidin-4-yl)seryl-3-(3-hexopyranosyl-2-iminoimidazolidin-4-yl)-serylseryl]], in the assay on Escherichia coli (setting [1]), the “MIC Escherichia coli (ATCC 25922)” value is over 64 µg/mL and the “MIC Escherichia coli (GC 4559)” value is over 64 µg/mL. Besides, the “MIC Staphylococcus aureus (GC 3051)” value in the assay with Staphylococcus sp. (strain GC 3051) came out at 0.5 µg/mL (≈ 0.361 µM). Moreover, the “MIC Staphylococcus aureus (GC 3053)” value against Staphylococcus sp. (strain GC 3053) worked out at 0.5 µg/mL (≈ 0.361 µM). For the same compound, the “MIC Staphylococcus aureus (GC 4542)” value against Staphylococcus sp. (strain GC 4542) came to 0.5 µg/mL (≈ 0.361 µM). The “MIC Staphylococcus aureus (GC 4544)” value against Staphylococcus sp. (strain GC 4544) stood at 0.5 µg/mL (≈ 0.361 µM). For the same compound, the “MIC Staphylococcus aureus (GC 4545)” value with Staphylococcus sp. (strain GC 4545) worked out at 0.5 µg/mL (≈ 0.361 µM). In addition, the “MIC Staphylococcus haemolyticus (GC 4546)” value with Staphylococcus sp. (strain GC 4546) was 32 µg/mL (≈ 23.1 µM). For the same compound, the “MIC Staphylococcus haemolyticus (GC 4546)” value with Staphylococcus sp. (strain GC 4546, broth dilution, 18 hours at 35° C.) came to 32 µg/mL (≈ 23.1 µM). In addition, in the assay on Staphylococcus sp. (strain GC 4547), the “MIC Coagulase Negative Staphylococcus (GC 4547)” value turned out to be 32 µg/mL (≈ 23.1 µM). Also, the “MIC Coagulase Negative Staphylococcus (GC 4547)” value in the assay with Staphylococcus sp. (strain GC 4547, broth dilution, 18 hours at 35° C.) came to 32 µg/mL (≈ 23.1 µM). Moreover, in the assay on Staphylococcus sp., the “MIC Coagulase Negative Staphylococcus (GC 4551)” value was determined as 32 µg/mL (≈ 23.1 µM) and the “MIC Coagulase Negative Staphylococcus (GC 6257)” value amounted to 16 µg/mL (≈ 11.6 µM). For the same compound, in the assay with Staphylococcus sp. (setting [2]), the “MIC Coagulase Negative Staphylococcus (GC 4551)” value was determined as 32 µg/mL (≈ 23.1 µM) and the “MIC Coagulase Negative Staphylococcus (GC 6257)” value was 16 µg/mL (≈ 11.6 µM). In the assay with Streptococcus sp. (broth dilution, 5×10^5 CFU/mL), the “MIC Streptococcus agalactiae (GC 4564)” value turned out to be 0.5 µg/mL (≈ 0.361 µM), the “MIC Streptococcus pneumoniae (GC 4565)” value was 0.12 µg/mL (≈ 0.0867 µM), the “MIC Streptococcus pneumonine (ATCC 6301)” value was in the range of 0.12 to 16 µg/mL and the “MIC Streptococcus pyogenes (GC 4563)” value worked out at 0.12 µg/mL (≈ 0.0867 µM). For the same compound, in the assay on Enterococcus sp. (broth dilution, 5×10^5 CFU/mL), the “MIC Enterococccus avium (GC 4558)” value was over 64 µg/mL, the “MIC Enterococccus faecalis (ATCC 29212)” value is over 64 µg/mL, the “MIC Enterococccus faecalis (GC 2691)” value was over 0.5 µg/mL and the “MIC Enterococccus faecalis (GC 3059)” value is over 0.5 µg/mL. In the assay with Enterococcus sp. (broth dilution, 5×10^5 CFU/mL), the “MIC Enterococccus faecalis (GC 4552)” value is over 0.5 µg/mL, the “MIC Enterococccus faecalis (GC 4553)” value was over 0.5 µg/mL, the “MIC Enterococccus faecalis (GC 4554)” value is over 0.5 µg/mL and the “MIC Enterococccus faecalis (GC 6189)” value is over 64 µg/mL. In the assay on Enterococcus sp. (broth dilution, 5×10^5 CFU/mL), the “MIC Enterococccus faecium (GC 2243)” value is over 64 µg/mL, the “MIC Enterococccus faecium (GC 4556)” value was over 64 µg/mL, the “MIC Enterococccus faecium (GC 4557)” value turned out to be 0.5 µg/mL (≈ 0.361 µM) and the “MIC Enterococcus faecalis (GC 2242)” value was over 64 µg/mL.
In the case of `CC(c1ccccc1)C1NC(=O)CNC(=O)C(CO)NC(=O)C(CC2CNC(=N)N2C2OC(CO)C(O)C(O)C2O)NC(=O)C(CC2CNC(=N)N2)NC(=O)C(Cc2ccc(OC3OC(CO)C(OC4OC(CO)C(O)C(O)C4OCc4ccc(OCc5ccccc5)cc4)C(O)C3O)cc2)NC1=O` (centres unmarked) [Example 246c], the “MIC Escherichia coli (GC 4560)” value against Escherichia coli (18 hours at 35° C.) stood at 32 µg/mL (≈ 21.9 µM). Moreover, the “MIC Streptococcus pneumoniae (GC 1894)” value in the assay on Streptococcus sp. (Streptococcus pneumoniae (GC 1894)) was found to be 64 µg/mL (≈ 43.8 µM); in the assay with Streptococcus sp. (broth dilution, inoculum 5×10^5 CFU/mL), 64 µg/mL (≈ 43.8 µM). Besides, the “MIC Enterococcus avium (GC 4558)” value against Enterococcus sp. (Enterococcus avium (GC 4558)) was 64 µg/mL (≈ 43.8 µM).
For the compound `CC(c1ccc(Cl)cc1)C1NC(=O)CNC(=O)C(CO)NC(=O)C(C(O)C2CNC(=N)N2C2OC(CO)C(O)C(O)C2O)NC(=O)C(C(O)C2CNC(=N)N2)NC(=O)C(Cc2ccc(OC3OC(CO)C(OC4OC(CO)C(O)C(O)C4O)C(O)C3O)cc2)NC1=O` (stereo not drawn) [Example 262a, Cyclo[glycyl-4-chloro-β-methylphenylalanyl-O-(4-O-hexopyranosylhexopyranosyl)tyrosyl-3-(2-iminoimidazolidin-4-yl)seryl-3-(3-hexopyranosyl-2-iminoimidazolidin-4-yl)serylseryl]] (cyclo(G[ξPhe(4-Cl,βξ-Me)]Y(X2)[ξEnduracididine(βξ-OH,4'ξ)][X1]S); configuration not given here), the “MIC Escherichia coli (GC 4560)” value in the assay with Escherichia coli amounted to 16 µg/mL (≈ 12 µM). Further, the “MIC Coagulase Negative Staphylococcus (GC 4547)” value amounted to 64 µg/mL (≈ 48.1 µM) in the assay on Staphylococcus sp. (Coagulase Negative Staphylococcus (GC 4547), 18 hours at 35° C.) and 64 µg/mL (≈ 48.1 µM) against Staphylococcus sp. (Coagulase Negative Staphylococcus (GC 4547), broth dilution, 18 hours at 35° C.). In addition, the “MIC Coagulase Negative Staphylococcus (GC 4548)” value in the assay with Staphylococcus sp. (18 hours at 35° C.) and in the assay with Staphylococcus sp. (setting [2]) was 64 µg/mL (≈ 48.1 µM) each time. Also, the “MIC Coagulase Negative Staphylococcus (GC 4549)” value against Staphylococcus sp. (18 hours at 35° C.) and against Staphylococcus sp. (setting [2]) was 16 µg/mL (≈ 12 µM) each time. Also, the “MIC Staphylococcus aureus (ATCC 29213)” value against Staphylococcus sp. (18 hours at 35° C.) and in the assay with Staphylococcus sp. (setting [2]) was 64 µg/mL (≈ 48.1 µM) each time. Further, the “MIC Staphylococcus aureus (GC 4541)” value against Staphylococcus sp. (18 hours at 35° C.) and in the assay on Staphylococcus sp. (setting [2]) was 64 µg/mL (≈ 48.1 µM) throughout. The “MIC Staphylococcus aureus (GC 4544)” value with Staphylococcus sp. (Staphylococcus aureus (GC 4544), 18 hours at 35° C.) amounted to 64 µg/mL (≈ 48.1 µM); with Staphylococcus sp. (Staphylococcus aureus (GC 4544), broth dilution, 18 hours at 35° C.), 64 µg/mL (≈ 48.1 µM). Further, the “MIC Staphylococcus aureus (GC 4545)” value was found to be 64 µg/mL (≈ 48.1 µM) in the assay with Staphylococcus sp. (Staphylococcus aureus (GC 4545), 18 hours at 35° C.) and 64 µg/mL (≈ 48.1 µM) in the assay with Staphylococcus sp. (Staphylococcus aureus (GC 4545), broth dilution, 18 hours at 35° C.). Moreover, the “MIC Staphylococcus aureus-SMITH (GC 4543)” value against Staphylococcus sp. (18 hours at 35° C.) and against Staphylococcus sp. (setting [2]) was 64 µg/mL (≈ 48.1 µM) throughout. The “MIC Staphylococcus haemolyticus (GC 4546)” value in the assay on Staphylococcus sp. (Staphylococcus haemolyticus (GC 4546), 18 hours at 35° C.) turned out to be 64 µg/mL (≈ 48.1 µM); in the assay with Staphylococcus sp. (Staphylococcus haemolyticus (GC 4546), broth dilution, 18 hours at 35° C.), 64 µg/mL (≈ 48.1 µM). Moreover, the “MIC Streptococcus agalactiae (GC 4564)” value with Streptococcus sp. (Streptococcus agalactiae (GC 4564)) was 32 µg/mL (≈ 24.1 µM). Also, the “MIC Streptococcus pyogenes (ID-3187)” value in the assay on Streptococcus sp. (Streptococcus pyogenes (ID-3187)) was 32 µg/mL (≈ 24.1 µM).
